{
  "source": "patent US7691874B2",
  "about": "“Neuroprotective properties of dextrorotatory morphinans” (priority 2004, dated 2010)",
  "key": {"[1]": {"system": "C57 BL/6 mice", "assay": "Locomotor activity and locomotor pattern following repeated administration of morphinans or PCP", "type": "in vivo"}, "[2]": {"system": "C57 BL/6 mice", "assay": "Conditioned place preference (psychological dependence) following repeated administration of morphinans or PCP", "type": "in vivo", "conditions": "20 or 40 mg/kg i.p. (PCP 2.5 or 5 mg/kg); vs saline", "experimental": "On day 14, the guillotine doors were raised. […] Data were analyzed between 0900 and 1700 hr."}, "[3]": {"system": "LPS-treated mice", "assay": "Nigral TH-IR in LPS-treated mice", "type": "in vivo", "conditions": "24 mg/kg i.p.", "excerpt": "FIGS. 8A-8B. […] Magnification=40×.\nControl animals received striatal injection with PBS."}, "[4]": {"system": "MA-treated mice", "assay": "Methamphetamine (MA)-induced hyperthermia", "type": "in vivo", "conditions": "24 mg/kg; MA 7.5 mg/kg i.p. x 4 at 2-h intervals", "experimental": "Rectal temperature was recorded at 40 min after each MA treatment. […] Mice were sacrificed at 3 days after final MA injection.\nFIGS. 10A-10B show effect of morphinans on the methamphetamine (MA)-induced hyperthermia. Mice received i.p. injections of MA (four injections of 7.5 mg/kg each) at 2-h intervals under the ambient temperature of 22.0±0.5° C. Temperatures were recorded at 40 min after each MA treatment (Arrow=MA injection)."}, "[5]": {"system": "MA-treated mice", "assay": "Hypokinesia induced by MA", "type": "in vivo", "conditions": "12 and 24 mg/kg; 3 days after final MA"}, "[6]": {"system": "MPTP-treated mice", "assay": "MPTP-induced loss of nigral TH-IR with CB1 agonist/antagonist and HM", "type": "in vivo", "conditions": "given alone: AM-251 0.3, ACEA 2, HM 20 mg/kg i.p.; MPTP 20 mg/kg i.p./day x 7"}, "[7]": {"system": "MPTP-treated mice", "assay": "MPTP model, HM versus L-dopa/carbidopa: nigral TH-IR", "type": "in vivo", "conditions": "HM 24 mg/kg i.p., L-dopa 200 mg/kg p.o., carbidopa 20 mg/kg p.o.", "experimental": "FIGS. 21A-21G show effects of carbidopa, L-dopa, carbidopa+L-dopa and HM on the nigral tyrosine hydroxylase-like immunoreactivity (TH-IR) of the mice treated with MPTP. […] Magnification=40×.\nA prescription drug for treating Parkinsonian patients is L-dopa or carbidopa plus L-dopa. Thus, the neuroprotective effects of HM was compared with L-dopa, carbidopa, or carbidopa plus L-dopa. […] Locomotor activity was examined for 60 min after final treatment of MPTP. Mice were sacrificed at 24 h after final MPTP administration. HM (24 mg/kg, i.p.), L-dopa (200 mg/kg, p.o.) with or without carbidopa (20 mg/kg, p.o.) was administered for 2 weeks before first MPTP challenge."}, "[8]": {"system": "LPS-treated mice", "assay": "LPS model, HM versus L-dopa/carbidopa: nigral TH-IR", "conditions": "mouse, in vivo", "excerpt": "FIG. 27 show effects of carbidopa, L-dopa, carbidopa+L-dopa and HM on the nigral tyrosine hydroxylase-like immunoreactivity (TH-IR) of the mice treated with LPS."}, "[9]": {"system": "LPS-treated mice", "assay": "LPS model, HM versus L-dopa/carbidopa: microglia F4/80-like immunoreactivity", "type": "in vivo", "conditions": "substantia nigra"}, "[10]": {"system": "MA-treated mice", "assay": "MA model, HM versus L-dopa/carbidopa: hyperthermia", "type": "in vivo", "conditions": "MA 7.5 mg/kg i.p. x 4", "experimental": "FIGS. 31A-31B show effect of drugs on the MA-induced hyperthermia. Mice received MA injections as 2 hrs' time interval under the ambient temperature of 22.0±0.5° C.\nExperimental paradigm for MA with or without compounds is in FIG. 30. Treatment with MA (7.5 mg/kg, i.p.×four times as two hour time interval) produces hyperthermia (P<0.01)."}, "[11]": {"system": "MA-treated mice", "assay": "MA model, HM versus L-dopa/carbidopa: locomotor activity", "type": "in vivo", "conditions": "3 days after MA"}, "[12]": {"system": "cocaine-treated mice", "assay": "Cocaine-induced hyperlocomotion", "type": "in vivo", "summary_of_the_method": "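Morphinans (15 and 30 mg/kg, i.p.) or dimemorfan (20 mg/kg, i.p.) given 30 minutes before cocaine (5 and 20 mg/kg, i.p.); treatments continued for 7 days. Locomotion scored as central activity (non-specific movement in box center) and marginal activity (circling).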"}, "[13]": {"system": "cocaine-treated mice", "assay": "Cocaine-induced conditioned place preference with CB1 modulation", "experimental": "The control mice received an i.p. injection of saline just before entering the white or black compartment. Cocaine or MA dissolved in saline was administered immediately before the mice were placed in the white compartment. To test the effect of cocaine alone or MA alone or in combination with exemplified morphinans (DM, HM, AM, CM or DF), each morphinan was administered 2 hr before cocaine or saline injection.\nOn day 1, the mice were pre-exposed to the test apparatus for 5 min. The guillotine doors were raised and the mice were allowed to move freely between the two compartments. On day 2, the time each mouse spent in each compartment was recorded for 15 min. On days 3, 5, 7, 9, 11, and 13, the mice were injected with cocaine before being confined to the white compartment, the non-preferred side, for 20 min. On days 4, 6, 8, 10, and 12, the mice were injected with saline before being confined to the black compartment, the preferred side, for 20 min. On day 14, the guillotine doors were raised. The mice were initially placed in the tunnel and the time spent by the mice in the two compartments was recorded for 15 min. The scores were calculated from the differences in the time spent in the white compartment in the testing and pre-testing phases."}, "[14]": {"system": "NMDA receptor associated PCP sites", "conditions": "cited from earlier work"}, "[15]": {"system": "MPTP-treated mice", "assay": "Striatal dopamine and metabolites (HPLC-EC) in MPTP-treated mice", "conditions": "for Concentration DA in the striatum: mean ± S.E.M., 8 animals"}, "[16]": {"target": "cannabinoid CB1 site (Rattus norvegicus, UniProt P20272)", "sequence (P20272 whole entry)": "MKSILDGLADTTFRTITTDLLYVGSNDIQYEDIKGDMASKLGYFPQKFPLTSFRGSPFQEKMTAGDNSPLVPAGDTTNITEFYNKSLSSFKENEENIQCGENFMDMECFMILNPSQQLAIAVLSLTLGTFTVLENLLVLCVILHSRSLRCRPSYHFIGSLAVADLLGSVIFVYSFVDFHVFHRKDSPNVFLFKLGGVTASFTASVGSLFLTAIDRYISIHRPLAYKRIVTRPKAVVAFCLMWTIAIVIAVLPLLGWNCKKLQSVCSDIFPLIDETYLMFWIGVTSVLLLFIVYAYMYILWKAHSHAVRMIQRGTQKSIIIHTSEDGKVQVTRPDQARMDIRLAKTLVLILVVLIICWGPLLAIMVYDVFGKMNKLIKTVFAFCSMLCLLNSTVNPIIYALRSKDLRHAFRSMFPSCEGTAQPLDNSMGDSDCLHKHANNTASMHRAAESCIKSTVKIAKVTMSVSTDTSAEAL"}},
  "note": "Marks after values point to notes of the source that are not given here.",
  "data": [
    {"smiles": "Oc1ccc2c(c1)[C@@]13CCCC[C@H]1[C@@H](C2)NCC3", "note": "[HM, 3-hydroxymorphinan]", "values": [
      {"measurement": "locomotor pattern (tracings)", "setting": "[1]; 40 mg/kg i.p. (PCP 5 mg/kg), FIG. 3", "result": "did not produce significant marginal activity"},
      {"measurement": "marginal activity (circling behaviour; absolute turn angular)", "setting": "[1]; 20 or 40 mg/kg i.p./day x 7 (PCP 2.5 or 5 mg/kg), 3-min period, vs saline", "result": "did not significantly affect marginal activity"},
      {"measurement": "locomotor activity (total distance moved)", "setting": "[1]; 20 or 40 mg/kg i.p./day x 7 days, 30 min after final treatment, vs saline", "result": "comparable to that with saline"},
      {"measurement": "conditioned place preference (CPP)", "setting": "[2]", "result": "almost no CPP effects"},
      {"measurement": "effect on LPS-induced reduction in nigral TH-positive cells", "setting": "[3]", "result": "significantly attenuated the reduction in TH-positive cells"},
      {"measurement": "effect on MA-induced hyperthermia (rectal temperature)", "setting": "[4]", "result": "most efficacious"},
      {"measurement": "effect on MA-induced reduction in locomotor activity", "setting": "[5]", "result": "appeared to be the most effective in preventing reduction in motor activity"},
      {"measurement": "effect on MPTP-induced reduction of nigral TH-IR", "setting": "[6]", "result": "Attenuates MPTP-induced Reduced Tyrosine Hydroxylase-like Immunoreactivity"},
      {"measurement": "effect on MPTP-induced nigral loss in TH-IR", "setting": "[7]", "result": "significantly attenuated"},
      {"measurement": "effect on LPS-induced loss in nigral TH-IR", "setting": "[8]", "result": "most effective in attenuating LPS-induced reduction in TH-IR"},
      {"measurement": "effect on LPS-induced increase in F4/80-like immunoreactivity (microglia)", "setting": "[9]", "result": "most effective in attenuating LPS-induced increase in F4/80-like immunoreactivity"},
      {"measurement": "effect on MA-induced hyperthermia", "setting": "[10]", "result": "significantly attenenuated"},
      {"measurement": "effect on MA-induced reduction in locomotor activity", "setting": "[11]", "result": "more efficacious than that of L-dopa or carbidopa+L-dopa"},
      {"measurement": "effect on locomotor activity induced by low dose of cocaine", "setting": "[12]; cocaine 5 mg/kg i.p. x 7 days, morphinan 15 or 30 mg/kg (DF 20 mg/kg) i.p.", "result": "consistently attenuated locomotor activity induced by a low dose of cocaine"},
      {"measurement": "effect on hyperactivity induced by high dose of cocaine", "setting": "[12]; cocaine 20 mg/kg i.p. x 7 days, morphinan 15 or 30 mg/kg i.p. 30 min before", "result": "not uniform"},
      {"measurement": "CPP response of the compound itself", "setting": "[13]; AM 251 0.3, HM 20, ACEA 2 mg/kg, no cocaine", "result": "Neither saline-, AM 251 (0.3 mg/kg)-treated nor HM (20 mg/kg)-treated animals showed any CPP response"},
      {"measurement": "effect on cocaine-induced CPP", "setting": "[13]; cocaine 10 mg/kg", "result": "significantly reduced"},
      {"measurement": "affinity for NMDA receptor associated PCP sites", "setting": "[14]", "result": "very low affinities"},
      {"measurement": "effect on MPTP-induced reductions in striatal DA, DOPAC and HVA", "setting": "[15]; 24 mg/kg pretreatment", "result": "significantly protected"},
      {"measurement": "Concentration DOPAC in the striatum", "setting": "[15]; morphinan 12 (mg/kg) + MPTP", "result": "68 ± 7", "unit": "ng/100 mg wet tissue"},
      {"measurement": "Concentration HVA in the striatum", "setting": "[15]; morphinan 12 (mg/kg) + MPTP", "result": "84 ± 8", "unit": "ng/100 mg wet tissue"},
      {"measurement": "Concentration DA in the striatum", "setting": "[15]; morphinan 12 (mg/kg) + MPTP", "result": "582 ± 74", "unit": "ng/100 mg wet tissue"},
      {"measurement": "Concentration DOPAC in the striatum", "setting": "[15]; morphinan 24 (mg/kg) + MPTP", "result": "98 ± 9^c ng/100 mg wet tissue"},
      {"measurement": "Concentration HVA in the striatum", "setting": "[15]; morphinan 24 (mg/kg) + MPTP", "result": "104 ± 10^c ng/100 mg wet tissue"},
      {"measurement": "Concentration DA in the striatum", "setting": "[15]; morphinan 24 (mg/kg) + MPTP", "result": "896 ± 79^c ng/100 mg wet tissue"},
      {"measurement": "Ki", "setting": "[16]", "result": 11.5, "unit": "nM"}
    ]}
  ]
}
